For 25 compounds, IC50 results are on record in patent publication US9328112B2, “Tetracyclic CDK9 kinase inhibitors” (AbbVie Inc., priority 2014, dated 2016).

One experiment concerns the target CDK9/Cyclin T1 (Homo sapiens (Human), UniProt P50750). The experiment can be described thus: CDK9 enzyme assay (LANCE ULight TR-FRET kinase assay). The class given is biochemical. The settings on record: 1000 μM ATP, 100 nM ULight MBP, kinase reaction 1 hour. The method in brief:
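Human CDK9/Cyclin T1 phosphorylating 100 nM ULight-MBP with 1000 μM ATP in HEPES/MgCl2 buffer, 1 h reaction. Stopped with 20 mM EDTA plus 0.5 nM Eu anti-phospho-MBP antibody, incubated 1 h, read by TR-FRET (ex 320 nm, em 615/665 nm).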

The next experiment has as its system H929 cells. The experiment can be described thus: Cell viability assay (Cell TiterGlo). The settings on record: Homo sapiens, NCI-H929, 24 hours at 37° C., Cell TiterGlo luminescence. The class given is cell-based. As for the experimental part:
The cell viability assay was performed using H929 cells. Cells were seeded in 96-well plates at 10,000 cells/well and, after overnight incubation, treated with compounds in a dose response of 3-fold dilutions from 10 μM to 0.005 μM ([…], 0.1% final DMSO concentration). After 24 hours at 37° C., cell viability was measured using Cell TiterGlo reagent (Promega) with a luminescence reader.

SMILES strings stand for the structures.

Sequence of CDK9/Cyclin T1 (P50750 whole entry): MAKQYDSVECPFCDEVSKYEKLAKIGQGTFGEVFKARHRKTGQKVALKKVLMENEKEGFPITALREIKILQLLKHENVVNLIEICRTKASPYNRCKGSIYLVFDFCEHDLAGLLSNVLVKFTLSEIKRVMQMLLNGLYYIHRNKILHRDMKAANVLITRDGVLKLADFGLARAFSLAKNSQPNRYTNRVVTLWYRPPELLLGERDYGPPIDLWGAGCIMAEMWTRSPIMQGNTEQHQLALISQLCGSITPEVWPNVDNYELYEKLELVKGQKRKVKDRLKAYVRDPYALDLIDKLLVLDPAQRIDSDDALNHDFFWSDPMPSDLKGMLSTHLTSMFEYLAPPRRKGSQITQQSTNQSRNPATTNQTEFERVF
Sequence of CDK9/Cyclin T1 (O60563 whole entry partner): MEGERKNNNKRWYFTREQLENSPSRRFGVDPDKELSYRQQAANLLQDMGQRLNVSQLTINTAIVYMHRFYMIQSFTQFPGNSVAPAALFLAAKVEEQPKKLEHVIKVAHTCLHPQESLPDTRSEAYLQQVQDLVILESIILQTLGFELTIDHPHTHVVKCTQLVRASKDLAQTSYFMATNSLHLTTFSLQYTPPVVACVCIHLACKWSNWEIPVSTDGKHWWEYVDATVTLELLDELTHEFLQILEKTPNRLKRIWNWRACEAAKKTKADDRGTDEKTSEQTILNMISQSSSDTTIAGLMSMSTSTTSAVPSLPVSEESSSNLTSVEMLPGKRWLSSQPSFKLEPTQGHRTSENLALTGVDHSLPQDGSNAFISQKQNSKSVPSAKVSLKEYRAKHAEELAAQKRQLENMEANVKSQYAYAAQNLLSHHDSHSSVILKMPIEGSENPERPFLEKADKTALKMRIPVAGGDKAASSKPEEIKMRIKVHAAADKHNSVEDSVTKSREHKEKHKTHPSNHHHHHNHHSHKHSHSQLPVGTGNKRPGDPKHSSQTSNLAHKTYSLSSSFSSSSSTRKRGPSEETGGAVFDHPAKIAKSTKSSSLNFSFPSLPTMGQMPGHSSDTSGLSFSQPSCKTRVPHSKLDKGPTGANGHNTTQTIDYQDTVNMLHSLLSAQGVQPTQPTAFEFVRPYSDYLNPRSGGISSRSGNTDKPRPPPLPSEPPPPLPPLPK

Turning to `CN1Cc2c(C3=CCNCC3)[nH]c3nccc(c23)-c2cccnc21` [Example 135, 7-methyl-5-(1,2,3,6-tetrahydropyridin-4-yl)-6,7-dihydro-4H-3,4,7,8-tetraazadibenzo[cd,f]azulene], the IC50 against CDK9/Cyclin T1 amounted to 63 nM; with H929 cells, 76 nM.

On to `CN1Cc2c(C3=CCN([C@H]4CC[C@@H](CC(=O)O)CC4)CC3)[nH]c3nccc(c23)-c2cc(F)c(F)cc21` [Example 136, {cis-4-[4-(9,10-difluoro-7-methyl-6,7-dihydro-4H-3,4,7-triazadibenzo[cd,f]azulen-5-yl)-3,6-dihydropyridin-1(2H)-yl]cyclohexyl}acetic acid], for which the values for the IC50 against CDK9/Cyclin T1 and with H929 cells were 58 nM and 21 nM, respectively.

`CN1Cc2c(C3=CCN(CC(=O)N4CC(O)C4)CC3)[nH]c3nccc(c23)-c2cc(F)c(F)cc21` [Example 137, 2-[4-(9,10-difluoro-7-methyl-6,7-dihydro-4H-3,4,7-triazadibenzo[cd,f]azulen-5-yl)-3,6-dihydropyridin-1(2H)-yl]-1-(3-hydroxyazetidin-1-yl)ethanone]: the concentration for half-maximal inhibition (IC50) worked out at 52 nM on CDK9/Cyclin T1 and 45 nM in the experiment with H929 cells.

`CN1Cc2c(C3=CCN(S(C)(=O)=O)CC3)[nH]c3nccc(c23)-c2cccnc21` [Example 138, 7-methyl-5-[1-(methylsulfonyl)-1,2,3,6-tetrahydropyridin-4-yl]-6,7-dihydro-4H-3,4,7,8-tetraazadibenzo[cd,f]azulene]: the IC50 at CDK9/Cyclin T1 was determined as 69 nM; in the experiment on H929 cells, 180 nM.

Take `CNC(=O)N1CC=C(c2[nH]c3nccc4c3c2CN(C)c2ncccc2-4)CC1` [Example 139, N-methyl-4-(7-methyl-6,7-dihydro-4H-3,4,7,8-tetraazadibenzo[cd,f]azulen-5-yl)-3,6-dihydropyridine-1(2H)-carboxamide]: the figures for the IC50 at CDK9/Cyclin T1 and with H929 cells were 94 nM and 180 nM, respectively.

Turning to `CN1Cc2c(C3=CCN(C4CC(CC(=O)O)C4)CC3)[nH]c3nccc(c23)-c2cc(F)ccc21` (centres unmarked) [Example 140, {3-[4-(10-fluoro-7-methyl-6,7-dihydro-4H-3,4,7-triazadibenzo[cd,f]azulen-5-yl)-3,6-dihydropyridin-1(2H)-yl]cyclobutyl}acetic acid], the values for the IC50 on CDK9/Cyclin T1 and in the experiment on H929 cells were 42 nM and 58 nM, respectively.

As for `CN1Cc2c(C3=CCN([C@H]4CC[C@H](C(=O)O)CC4)CC3)[nH]c3nccc(c23)-c2cc(F)ccc21` [Example 141, trans-4-[4-(10-fluoro-7-methyl-6,7-dihydro-4H-3,4,7-triazadibenzo[cd,f]azulen-5-yl)-3,6-dihydropyridin-1(2H)-yl]cyclohexanecarboxylic acid], the figures for the IC50 at CDK9/Cyclin T1 and with H929 cells were 51 nM and 30 nM, respectively.

Take `CC[C@H]1c2c(C3=CCNCC3)[nH]c3nccc(c23)-c2cc(F)ccc2N1C` [Example 142, (6S)-6-ethyl-10-fluoro-7-methyl-5-(1,2,3,6-tetrahydropyridin-4-yl)-6,7-dihydro-4H-3,4,7-triazadibenzo[cd,f]azulene]: the IC50 is 30 nM against CDK9/Cyclin T1 and 5 nM in the experiment with H929 cells.

As for `CC[C@@H]1c2c(C3=CCNCC3)[nH]c3nccc(c23)-c2cc(F)ccc2N1C` [Example 143, (6R)-6-ethyl-10-fluoro-7-methyl-5-(1,2,3,6-tetrahydropyridin-4-yl)-6,7-dihydro-4H-3,4,7-triazadibenzo[cd,f]azulene], the IC50 on CDK9/Cyclin T1 amounted to 417 nM; with H929 cells, 582 nM.

Regarding `CN1Cc2c(C3=CCNCC3)[nH]c3nccc(c23)-c2cc(F)c(F)cc21` [Example 144, 9,10-difluoro-7-methyl-5-(1,2,3,6-tetrahydropyridin-4-yl)-6,7-dihydro-4H-3,4,7-triazadibenzo[cd,f]azulene], the figures for the IC50 against CDK9/Cyclin T1 and in the experiment with H929 cells were 29 nM and 7 nM, respectively.

For `CN1Cc2c(C3=CCN(CC(=O)O)CC3)[nH]c3nccc(c23)-c2cc(F)c(F)cc21` [Example 145, [4-(9,10-difluoro-7-methyl-6,7-dihydro-4H-3,4,7-triazadibenzo[cd,f]azulen-5-yl)-3,6-dihydropyridin-1(2H)-yl]acetic acid], the IC50 at CDK9/Cyclin T1 was 42 nM; in the experiment on H929 cells, 180 nM.

As to `CN1Cc2c(C3=CCN([C@H]4CC[C@H](CC(=O)O)CC4)CC3)[nH]c3nccc(c23)-c2cc(F)c(F)cc21` [Example 146, {trans-4-[4-(9,10-difluoro-7-methyl-6,7-dihydro-4H-3,4,7-triazadibenzo[cd,f]azulen-5-yl)-3,6-dihydropyridin-1(2H)-yl]cyclohexyl}acetic acid], the values for the IC50 against CDK9/Cyclin T1 and with H929 cells were 82 nM and 32 nM, respectively.

As for `CN1Cc2c(C3=CCN(CC(=O)N4CCC[C@H]4CO)CC3)[nH]c3nccc(c23)-c2cc(F)c(F)cc21` [Example 147, 2-[4-(9,10-difluoro-7-methyl-6,7-dihydro-4H-3,4,7-triazadibenzo[cd,f]azulen-5-yl)-3,6-dihydropyridin-1(2H)-yl]-1-[(2S)-2-(hydroxymethyl)pyrrolidin-1-yl]ethanone], the IC50 stood at 45 nM at CDK9/Cyclin T1 and 6 nM in the experiment with H929 cells.

Take `CN1Cc2c(C3=CCN(CC(=O)N(C)C4CC(O)C4)CC3)[nH]c3nccc(c23)-c2cc(F)c(F)cc21` (centres unmarked) [Example 148, 2-[4-(9,10-difluoro-7-methyl-6,7-dihydro-4H-3,4,7-triazadibenzo[cd,f]azulen-5-yl)-3,6-dihydropyridin-1(2H)-yl]-N-(3-hydroxycyclobutyl)-N-methylacetamide]: the IC50 against CDK9/Cyclin T1 was found to be 53 nM; in the experiment with H929 cells, 25 nM.

With `CN(C)C(=O)CN1CC=C(c2[nH]c3nccc4c3c2CN(C)c2ncccc2-4)CC1` [Example 149, N,N-dimethyl-2-[4-(7-methyl-6,7-dihydro-4H-3,4,7,8-tetraazadibenzo[cd,f]azulen-5-yl)-3,6-dihydropyridin-1(2H)-yl]acetamide], the values for the IC50 against CDK9/Cyclin T1 and in the experiment with H929 cells were 110 nM and 160 nM, respectively.

For the compound `CN1Cc2c(C3=CCN([C@H]4CC[C@H](C(=O)O)CC4)CC3)[nH]c3nccc(c23)-c2cc(F)c(F)cc21` [Example 150, trans-4-[4-(9,10-difluoro-7-methyl-6,7-dihydro-4H-3,4,7-triazadibenzo[cd,f]azulen-5-yl)-3,6-dihydropyridin-1(2H)-yl]cyclohexanecarboxylic acid], the IC50 at CDK9/Cyclin T1 is 57 nM; in the experiment with H929 cells, 28 nM.

On to `CN1Cc2c(C3=C[C@@H]4COC(=O)N4CC3)[nH]c3nccc(c23)-c2cc(F)ccc21` [Example 151, (8aR)-7-(10-fluoro-7-methyl-6,7-dihydro-4H-3,4,7-triazadibenzo[cd,f]azulen-5-yl)-1,5,6,8a-tetrahydro[1,3]oxazolo[3,4-a]pyridin-3-one], for which the results for the 50% inhibitory concentration (IC50) at CDK9/Cyclin T1 and in the experiment on H929 cells were 37 nM and 190 nM, respectively.

Turning to `CN1Cc2c(C3=C[C@H]4COC(=O)N4CC3)[nH]c3nccc(c23)-c2cc(F)ccc21` [Example 152, (8aS)-7-(10-fluoro-7-methyl-6,7-dihydro-4H-3,4,7-triazadibenzo[cd,f]azulen-5-yl)-1,5,6,8a-tetrahydro[1,3]oxazolo[3,4-a]pyridin-3-one], the IC50 against CDK9/Cyclin T1 was determined as 41 nM; in the experiment with H929 cells, 660 nM.

On to `CN1Cc2c(C3=CCN4C(=O)OC[C@H]4C3)[nH]c3nccc(c23)-c2cc(F)ccc21` [Example 153, (8aR)-7-(10-fluoro-7-methyl-6,7-dihydro-4H-3,4,7-triazadibenzo[cd,f]azulen-5-yl)-1,5,8,8a-tetrahydro[1,3]oxazolo[3,4-a]pyridin-3-one], for which the IC50 against CDK9/Cyclin T1 stood at 66 nM; in the experiment with H929 cells it was 600 nM.

Turning to `CN1Cc2c(C3=C[C@H](CO)NCC3)[nH]c3nccc(c23)-c2cc(F)ccc21` [Example 154, [(2R)-4-(10-fluoro-7-methyl-6,7-dihydro-4H-3,4,7-triazadibenzo[cd,f]azulen-5-yl)-1,2,5,6-tetrahydropyridin-2-yl]methanol], the IC50 amounted to 28 nM against CDK9/Cyclin T1 and 56 nM in the experiment with H929 cells.

With `CN1Cc2c(C3=C[C@@H](CO)NCC3)[nH]c3nccc(c23)-c2cc(F)ccc21` [Example 155, [(2S)-4-(10-fluoro-7-methyl-6,7-dihydro-4H-3,4,7-triazadibenzo[cd,f]azulen-5-yl)-1,2,5,6-tetrahydropyridin-2-yl]methanol], the values for the half-inhibitory concentration (IC50) against CDK9/Cyclin T1 and in the experiment on H929 cells were 41 nM and 39 nM, respectively.

On to `CN1Cc2c(C3=CCN[C@@H](CO)C3)[nH]c3nccc(c23)-c2cc(F)ccc21` [Example 156, [(2R)-4-(10-fluoro-7-methyl-6,7-dihydro-4H-3,4,7-triazadibenzo[cd,f]azulen-5-yl)-1,2,3,6-tetrahydropyridin-2-yl]methanol], for which the IC50 worked out at 30 nM on CDK9/Cyclin T1 and 22 nM in the experiment on H929 cells.

Consider `CN(CCO)C(=O)CN1CC=C(c2[nH]c3nccc4c3c2CN(C)c2cc(F)c(F)cc2-4)CC1` [Example 157, 2-[4-(9,10-difluoro-7-methyl-6,7-dihydro-4H-3,4,7-triazadibenzo[cd,f]azulen-5-yl)-3,6-dihydropyridin-1(2H)-yl]-N-(2-hydroxyethyl)-N-methylacetamide], for which the IC50 amounted to 46 nM at CDK9/Cyclin T1 and 10 nM in the experiment with H929 cells.

Take `CN1Cc2c(C3=CCNCC3)[nH]c3nccc(c23)-c2ccccc21` [Example 158, 7-methyl-5-(1,2,3,6-tetrahydropyridin-4-yl)-6,7-dihydro-4H-3,4,7-triazadibenzo[cd,f]azulene]: the results for the half-maximal inhibitory concentration (IC50) at CDK9/Cyclin T1 and with H929 cells were 96 nM and 20 nM, respectively.

`CN1Cc2c(C3=CCNCC3)[nH]c3ncc(F)c(c23)-c2ccccc21` [Example 159, 1-fluoro-7-methyl-5-(1,2,3,6-tetrahydropyridin-4-yl)-6,7-dihydro-4H-3,4,7-triazadibenzo[cd,f]azulene]: the IC50 turned out to be 34 nM against CDK9/Cyclin T1 and 8 nM in the experiment on H929 cells.
